The molecules below were run against T1, S. aureus DnaG primase CTD (Staphylococcus aureus, UniProt P63964) (assay: 2D 1H-15N HSQC NMR titration).
T1 sequence (P63964 463-605): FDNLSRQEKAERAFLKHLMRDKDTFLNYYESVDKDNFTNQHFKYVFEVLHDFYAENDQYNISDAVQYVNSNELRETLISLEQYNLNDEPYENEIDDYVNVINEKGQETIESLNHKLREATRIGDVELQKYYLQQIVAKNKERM
Assay type: binding

Compound | Kd
Nc1nc2c(ncn2COCCO)c(=O)[nH]1 [acycloguanosine] | > 4 mM
Nc1ncnc2c1ncn2[C@@H]1O[C@H](CO)[C@@H](O)[C@H]1O [adenosine] | > 4 mM
O=c1c(O)c(-c2cc(O)c(O)c(O)c2)oc2cc(O)cc(O)c12 [myricetin] | > 4 mM
